Assay results taken from US6569846B1, “Palladium-substituted bacteriochlorophyll derivatives and use thereof” (Yeda Research and Development Co. Ltd., priority 1998, dated 2003).

System: M2R mouse melanoma cells
Test: Phototoxicity on M2R cells (Example 10, [3H]-thymidine incorporation)
Assay type: cell-based
Settings: pigments dissolved directly in culture medium containing 10% serum
Method: The diluted pigments were added and the cells were incubated in the dark for four hours at 37° C. Prior to illumination, the cells were washed once and replaced with fresh culture medium. The plates were then illuminated from the bottom for 10 minutes at room temperature and placed in the culture incubator at 37° C. in the dark. […] The following control systems were used: Dark control—untreated cells kept in the dark; Light control—cells not treated with sensitizer that were illuminated; Dark toxicity—cells treated with pigment but kept in the dark.

## Pd-Bacteriopheophorbide a ethyl ester [Pd-BPheid-ethyl ester, reference compound]
  concentration up to which not active at all (highest concentration tested): > 1 µM
